Experimental data as given in patent US7132422B2, “Sodium channel modulators” (Theravance, Inc., priority 2001, dated 2006).

Tested on: spinal nerve ligation (SNL) rats
Assay: In vivo pain model: spinal nerve ligation (SNL), 50% withdrawal threshold with von Frey filaments
Conditions: intraperitoneal dose of approximately 30 mg/kg
Protocol: Male Sprague-Dawley rats (120–180 g, Harlan, Indianapolis, Ind.) are pre-screened to determine their baseline 50% withdrawal threshold using a set of von Frey filaments. The 50% withdrawal threshold for mechanical stimulation to the hind paw is determined by the up-down method described by Dixon W. J., Ann.
An abrupt withdrawal of the foot during stimulation or immediately after the removal of stimulus is considered a positive response.
Whenever there is a positive or negative response, the next weaker or stronger filament is applied, respectively. The test is continued until six stimuli after the first change in response has been obtained. […] In the cases where continuous positive or negative responses are observed all the way out to the end of the stimulus spectrum, values of 0.3 g or 15.0 g are assigned, respectively.
After pre-screening, rats which display a 50% withdrawal threshold greater than 8 g are acceptable for surgery. The spinal nerve ligation (SNL) surgery is carried out as follows. Rats are anesthetized with inhaled Isoflurance and the left L5 and L6 spinal nerves are tightly ligated with 6-0 silk thread. Postoperatively, rats are placed under a heat lamp until motor function returns and then single-housed. At 5–7 days post surgery, rats are re-tested to determine their post-surgery 50% withdrawal threshold. Rats which consistently display (2 or more days) a 50% withdrawal threshold less than 4.5 g are considered acceptable for compound investigation.
Compounds are formulated in saline for injection and pH adjusted with dilute sodium hydroxide. Groups sizes are normally 5 or 6 rats. […] At 1, 3, and 6 hours post administration, the 50% withdrawal threshold is determined by an investigator who is blinded to the treatment groups. If at 6 hours, some prolonged activity is present, i.e., 50% withdrawal thresholds greater than 8 g, then later timepoints may be attempted (normally at 12 and 24 hours). Compounds can also be administered orally to determine oral activity.

SMILES | effectiveness for treating pain / activity in the in vivo pain model
Cc1cccc(Cl)c1OCC(C)(N)COc1c(C)cccc1Cl [Compound 5] | some activity
Cc1cccc(C)c1OCC(N)COc1c(F)cc(F)cc1F (stereo not drawn) [Compound 11] | some activity
Cc1ccccc1OCC(C)(N)COc1ccccc1C [Compound 1] | demonstrated effectiveness for treating pain
Cc1cccc(C)c1OCC(COc1c(C)cccc1C)NCCc1ccncc1 [Compound 79] | not active
Cc1ccccc1OCC(N)COc1ccccc1C [Compound 8] | not active
CC(N)(COc1c(F)cc(F)cc1F)COc1c(F)cc(F)cc1F [Compound 6] | not active
